The source of these data is patent US20110020239A1, “METHODS FOR IN VIVO IMAGING OF CELLS” (The Johns Hopkins University, priority 2007, published 2011).

In data set [1] the test system is human islets. The experiment in a line: Microfluorometric viability assay (Newport Green / propidium iodide) of labeled islets. It is filed as cell-based. The protocol:
Fresh human cadaveric islets were provided by the Joslin Diabetes Research Center (Boston, Mass.) under an approved protocol of the National Islet Cell Resource Program. Islets were cultured in RPMI 1640 medium (Gibco), supplemented with 10% fetal calf serum and 1% penicillin/streptomycin/L-glutamine (all reagents from Sigma Co) in a humidified CO2 incubator at 37° C. and a 5% CO2 atmosphere. Islets were cultured in tissue culture plates and culture media was replaced every 3 days. For all Feridex labeled islets, islets were initially labeled with procedure described below and then were cultured in contrast free medium. In the case of PFC labeled islets, the respective PFC was supplemented to each change of culture medium throughout the entire culture period.
Viability of labeled human islets was determined using a microfluorometric assay. Cells were incubated for 30 minutes with […] Newport Green (NG, Sigma, St. Louis, Mo.), which stains viable cell cytoplasm green. Following NG staining, islets were incubated for 10 minutes with 5 mM propidium iodide (PI, Sigma, St. Louis, Mo.), which emits red fluorescence when bound to nucleic acids. NG was excited by using a 500 nm laser line and emitted fluorescence was detected using a 535 nm long-pass filter. PI was excited by using a 514 nm laser line and emitted fluorescence was detected using a 550 nm long-pass filter. NG stained cells (green) were counted as viable, while PI stained cells (red) were counted as dead. In cases of dual staining, the cells were considered dead.

Data set [2] relates to human islets. The experiment in a line: Insulin secretion assay (static incubation, C-peptide ELISA). It is filed as cell-based. Set-up: glucose responsiveness stimulation index: dose or concentration left out as unconfirmed. The settings on record: for difference in glucose responsiveness stimulation index between PFOB and PFPE: PFOB vs PFPE, p>0.05; for glucose responsiveness stimulation index: increase of insulin secretion. The procedure:
A static incubation assay was used to assess the insulin secretion response of labeled human islets. One hundred islets were placed in a culture insert (membrane pore diameter 12 μm; Millicell PCF) in six-well plates. The insulin secretion was measured after 1.5 hrs in a solution of a specific glucose level. […] Aliquots of the medium were stored at −80° C. The C-peptide content of the samples was determined with an enzyme-linked, immunosorbent assay (ultrasensitive human c-peptide ELISA, Alpco Diagnostics); results (in ng/ml) were expressed as the means of three independent experiments. The C-peptide secretion was also assessed at 7 days and at 14 days following islet encapsulation, using 8 mM glucose and 90 min incubation.

A short description of data set [3]: 19F NMR of PFCs (aqueous solubility). It is filed as physicochemical. The conditions noted are these: 19F NMR experiments. From the text: In the ^19F NMR spectrum of PFOB, eight resonance peaks are observable, one for each carbon position.
In the next data set the test system is dendritic cells. The settings on record: Ahrens, Flores et al. 2005; cited from earlier work.

As to `FC(F)(F)C(F)(F)C(F)(F)C(F)(F)C(F)(F)C(F)(F)C(F)(F)C(F)(F)Br` [PFOB, perfluorooctylbromide], the “islet viability compared to both Feridex labeled and unlabeled islets” value with human islets [1] is reported as “significant increase in viability”. In the data set on human islets [1] (all days / all time points (days 1, 7, 14)), the “percentage survival of labeled islets compared to unlabeled control islets” value is on record as “statistically significant increase”. Besides, in the data set on human islets [2], the “difference in glucose responsiveness stimulation index between PFOB and PFPE” value is listed as “no significant statistical difference”; the “glucose responsiveness stimulation index” value is on record as 2.19. Also, in the data set on human islets [2] (insulin secretion assays), the “glucose responsiveness of labeled vs unlabeled islets” value is given as “no significant difference”. In data set [3], the aqueous solubility result is recorded as “below the limit of detection”.
Take `FC1(F)OC(F)(F)C(F)(F)OC(F)(F)C(F)(F)OC(F)(F)C(F)(F)OC(F)(F)C(F)(F)OC1(F)F` [PFPE, perfluoro-15-crown-5 ether]: in the data set on human islets [1] (days 7 and 14, p<0.05), the “percentage survival of labeled islets compared to unlabeled control islets” value was “significant statistical differences”. In addition, in the data set on human islets [2], the “difference in glucose responsiveness stimulation index between PFOB and PFPE” value is “no significant statistical difference”; the “glucose responsiveness stimulation index” value came out at 2.07. Besides, the “effect on dendritic cell proliferation, function, or maturation” value in the data set on dendritic cells was “no effect”.
